Laboratory results taken from patent US20250228239A1, “MOLECULES HAVING PESTICIDAL UTILITY, AND INTERMEDIATES, COMPOSITIONS, AND PROCESSES, RELATED THERETO” (priority 2024, published 2025).

Experiments:
Type in all cases: in vivo
[1] = test system: Cabbage Looper (Trichoplusia ni, TRIPNI); test: Bioassays on Cabbage Looper (CL), 128-well diet tray assay; conditions: Trichoplusia ni; Cabbage Looper, Table ABC / ABC-DP rating; read-out: CL rating
Procedure, shortened: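 One to five second-instar larvae per well on artificial diet surface-treated with 50 μg/cm^2 test molecule (applied in 90:10 acetone-water, dried). Held 5–7 days at 25° C, 14:10 light-dark; percent mortality recorded per well and averaged over eight wells.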

[2] = test system: Beet Armyworm (Spodoptera exigua, LAPHEG); test: Bioassays on Beet Armyworm (BAW), 128-well diet tray assay; conditions: Spodoptera exigua; Beet Armyworm, Table ABC / ABC-DP rating; read-out: BAW rating
Procedure, shortened: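 Diet-overlay assay: 50 μg/cm^2 compound applied in 90:10 acetone-water to artificial diet, allowed to dry, then infested with 1–5 L2 larvae/well; 8 wells/compound; covered, vented; 25° C., 14:10 L:D, 5–7 d; % mortality per well, averaged.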

[3] = test system: Yellow Fever Mosquito (Aedes aegypti, AEDSAE); conditions: Yellow Fever Mosquito, Table ABC / ABC-DP rating
Procedure, shortened: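 Rating-scale grades reflect larval mortality scored per well after 3 days at room temperature under non-evaporative lids. Larvae (~1 day old, hatched overnight in liver-powder water) were added to six daughter plates per compound, prepared from a 4000 ppm DMSO stock diluted in 90:10 water/acetone.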

| SMILES | pest or weed control at 50 µg/cm2 [1] | pest or weed control at 50 µg/cm2 [2] | YFM rating [3] |
| --- | --- | --- | --- |
| O=C(NNC(=O)c1cc(NC(=O)[C@H]2[C@H](c3cc(Cl)cc(Cl)c3)C2(Cl)Cl)ccc1Cl)c1ccccn1 (relative stereo) [F2531, trans-2,2-Dichloro-N-(4-chloro-3-(2-picolinoylhydrazine-1-carbonyl)phenyl)-3-(3,5-dichlorophenyl)cyclopropane-1-carboxamide] | 50 to 100% | 50 to 100% | A (80–100) |
| O=C(NCC1CC1)NNC(=O)c1cc(NC(=O)[C@H]2[C@H](c3cc(Cl)cc(Cl)c3)C2(Cl)Cl)ccc1Cl (relative stereo) [F2538, trans-2-(2-Chloro-5-(2,2-dichloro-3-(3,5-dichlorophenyl)cyclopropane-1-carboxamido)benzoyl)-N-(cyclopropylmethyl)hydrazine-1-carboxamide] | 50 to 100% | 50 to 100% | A (80–100) |
| O=C(NNC(=S)Nc1ccccc1)c1cc(NC(=O)[C@H]2[C@H](c3cc(Cl)cc(Cl)c3)C2(Cl)Cl)ccc1Cl (relative stereo) [F2541, trans-2,2-Dichloro-N-(4-chloro-3-(2-(phenylcarbamothioyl)hydrazine-1-carbonyl)phenyl)-3-(3,5-dichlorophenyl)cyclopropane-1-carboxamide] | 50 to 100% | 50 to 100% | A (80–100) |
| CCOC(=O)NNC(=O)c1cc(NC(=O)[C@H]2[C@H](c3cc(Cl)cc(Cl)c3)C2(Cl)Cl)ccc1Cl (relative stereo) [F2542, trans-ethyl 2-(2-chloro-5-(2,2-dichloro-3-(3,5-dichlorophenyl)cyclopropane-1-carboxamido)benzoyl)hydrazine-1-carboxylate] | 50 to 100% | 50 to 100% | B (More than 0 – Less than 80) |
| O=C(NNC(=O)c1cc(NC(=O)[C@H]2[C@H](c3cc(Cl)cc(Cl)c3)C2(Cl)Cl)ccc1Cl)OC(F)(F)F (relative stereo) [F2543, trans-Trifluoromethyl 2-(2-chloro-5-(2,2-dichloro-3-(3,5-dichlorophenyl)cyclopropane-1-carboxamido)benzoyl)hydrazine-1-carboxylate] | 50 to 100% | 50 to 100% | A (80–100) |
| O=C(NNCc1ccccc1)c1cc(NC(=O)[C@H]2[C@H](c3cc(Cl)cc(Cl)c3)C2(Cl)Cl)ccc1Cl (relative stereo) [F2545, trans-N-(3-(2-Benzylhydrazine-1-carbonyl)-4-chlorophenyl)-2,2-dichloro-3-(3,5-dichlorophenyl)cyclopropane-1-carboxamide] | 50 to 100% | 50 to 100% | A (80–100) |
| O=C(NNCc1ccc(F)cc1F)c1cc(NC(=O)[C@H]2[C@H](c3cc(Cl)cc(Cl)c3)C2(Cl)Cl)ccc1Cl (relative stereo) [F2547, trans-2,2-dichloro-N-(4-chloro-3-(2-(2,4-difluorobenzyl)hydrazine-1-carbonyl)phenyl)-3-(3,5-dichlorophenyl)cyclopropane-1-carboxamide] | 50 to 100% | 50 to 100% | A (80–100) |
| O=C(NNCC1CC1)c1cc(NC(=O)[C@H]2[C@H](c3cc(Cl)cc(Cl)c3)C2(Cl)Cl)ccc1Cl (relative stereo) [F2549, trans-2,2-Dichloro-N-(4-chloro-3-(2-(cyclopropylmethyl)hydrazine-1-carbonyl)phenyl)-3-(3,5-dichlorophenyl)cyclopropane-1-carboxamide] | 50 to 100% | 50 to 100% | A (80–100) |
| O=C(NNCCC(F)(F)F)c1cc(NC(=O)[C@H]2[C@H](c3cc(Cl)cc(Cl)c3)C2(Cl)Cl)ccc1Cl (relative stereo) [F2550, trans-2,2-Dichloro-N-(4-chloro-3-(2-(3,3,3-trifluoropropyl)hydrazine-1-carbonyl)phenyl)-3-(3,5-dichlorophenyl)cyclopropane-1-carboxamide] | 50 to 100% | 0 to 50% | B (More than 0 – Less than 80) |
| COCC(C)NNC(=O)c1cc(NC(=O)[C@H]2[C@H](c3cc(Cl)cc(Cl)c3)C2(Cl)Cl)ccc1Cl (relative stereo) [F2551, trans-2,2-Dichloro-N-(4-chloro-3-(2-(1-methoxypropan-2-yl)hydrazine-1-carbonyl)phenyl)-3-(3,5-dichlorophenyl)cyclopropane-1-carboxamide] | 50 to 100% | 50 to 100% | A (80–100) |
| CN(NCCC(F)(F)F)C(=O)c1cc(NC(=O)[C@H]2[C@H](c3cc(Cl)cc(Cl)c3)C2(Cl)Cl)ccc1Cl (relative stereo) [F2552, trans-2,2-Dichloro-N-(4-chloro-3-(1-methyl-2-(3,3,3-trifluoropropyl)hydrazine-1-carbonyl)phenyl)-3-(3,5-dichlorophenyl)cyclopropane-1-carboxamide] | 50 to 100% | 50 to 100% | A (80–100) |
| O=C(NNc1ccc(F)cc1)c1cc(NC(=O)[C@H]2[C@H](c3cc(Cl)cc(Cl)c3)C2(Cl)Cl)ccc1Cl (relative stereo) [F2553, trans-2,2-Dichloro-N-(4-chloro-3-(2-(4-fluorophenyl)hydrazine-1-carbonyl)phenyl)-3-(3,5-dichlorophenyl)cyclopropane-1-carboxamide] | 50 to 100% | 50 to 100% | A (80–100) |
| N#Cc1ccc(NNC(=O)c2cc(NC(=O)[C@H]3[C@H](c4cc(Cl)cc(Cl)c4)C3(Cl)Cl)ccc2Cl)cc1 (relative stereo) [F2554, trans-2,2-Dichloro-N-(4-chloro-3-(2-(4-cyanophenyl)hydrazine-1-carbonyl)phenyl)-3-(3,5-dichlorophenyl)cyclopropane-1-carboxamide] | 50 to 100% | 50 to 100% | A (80–100) |
| O=C(NNc1ccc([N+](=O)[O-])cc1)c1cc(NC(=O)[C@H]2[C@H](c3cc(Cl)cc(Cl)c3)C2(Cl)Cl)ccc1Cl (relative stereo) [F2555, trans-2,2-Dichloro-N-(4-chloro-3-(2-(4-nitrophenyl)hydrazine-1-carbonyl)phenyl)-3-(3,5-dichlorophenyl)cyclopropane-1-carboxamide] | 50 to 100% | 50 to 100% | A (80–100) |
| CN(NC(=O)c1cc(NC(=O)[C@H]2[C@H](c3cc(Cl)cc(Cl)c3)C2(Cl)Cl)ccc1Cl)c1ccccc1 (relative stereo) [F2557, trans-2,2-Dichloro-N-(4-chloro-3-(2-methyl-2-phenylhydrazine-1-carbonyl)phenyl)-3-(3,5-dichlorophenyl)cyclopropane-1-carboxamide] | 50 to 100% | 50 to 100% | A (80–100) |
| O=C(NNc1cc(F)ccc1F)c1cc(NC(=O)[C@H]2[C@H](c3cc(Cl)cc(Cl)c3)C2(Cl)Cl)ccc1Cl (relative stereo) [F2558, trans-2,2-Dichloro-N-(4-chloro-3-(2-(2,5-difluorophenyl)hydrazine-1-carbonyl)phenyl)-3-(3,5-dichlorophenyl)cyclopropane-1-carboxamide] | 50 to 100% | 50 to 100% | A (80–100) |
